Assay results taken from patent US3996231A, “1-Quinolinyl-pyrazolidine derivatives” (Choay S.A., priority 1973, dated 1976).
Where two headings read alike, the source gives them in different places.

What was measured:
Experimental pleurisy = Experimental pleurisy in the rat (terebenthine essence); type: in vivo, Wistar rats; conditions: 6 hours
Experimental: The injection of terebenthine essence (0.1 ml) into the bottom of the diaphragmatic sack of the rat causes in the hours which follow a vascular parietal reaction which leads to the formation of an inflammatory type pleurisy.
The average volume of the pleural exudate (taken up after opening the thoracic cage of the previously sacrificed animals) increases gradually in control animals to reach 6 to 7 ml towards the sixth hour, this volume remaining constant to the forty-eighth hour. The exudate is accompanied by the diapedesis of the formed elements of the blood and by the increase in the mobile cells of the conjunctive tissue. Five days after the injection of the irritant agent, the cellular phase gives place to a tissular reaction which leads to the building of dense granulation tissue and to the production of adhesions between the lungs and the thoracic wall.
The action of an anti-inflammatory substance is manifested by a reduction in the volume of the pleural exudate measured for example 6 hours after the injection of the irritant agent and by a reduction in the intensity of the later tissular reaction.
Experiments in Wistar rats of 200 g divided into batches in the following manner were carried out:
1 control batch of 15 animals
batch of 60 animals (batch 3) also divided into subgroups, each of them comprising 20 animals which have been treated with the doses indicated in Table V
6 batches of 15 animals, respectively treated with anti-inflammatory substances for comparison identified above.
The substances to be tested were administered by mouth 30 minutes before the injection of the irritant substance. The doses of these known anti-inflammatories correspond to their normal experimental doses. The results indicated in the Table V correspond to the reductions expressed as % of the average volumes of pleural exudate taken up 6 hours after the irritant injection and observed in the treated animals relative to the average volumes measured in the controls.

[1] = test system: Arthritis by Freund adjuvant; assay: Arthritis by Freund adjuvant; type: in vivo, rat; conditions: 50 mg/kg per day
Experimental: The injection of 0.5 ml of Freund adjuvant (product sold by the Difco Company) into the plantar pad of the rear foot of a rat of 90 days, causes a chronic polyarthritis.
This injection causes an inflammation first localised in the injected foot, then generalised. The blocking of the articulations appears between the 10th and the 20th days.
In a series of rats thus treated there are selected, 10 days after the injection of the Freund adjuvant, 50 rats having complete blockage of the articulations.

[2] = test system: transmission of painful stimuli; assay: Caroll and Lim test; type: in vivo, rat; conditions: 50 mg/kg by mouth
Source text: This test (Arch. Int. Pharmacodyn., 1960, CXXV, 383-403) enables the study of the effect of analgesics on the transmission of painful stimuli, by means of electrodes placed on the tail of the rat and connected to a "stimulator" constituted by a source adapted to supply an alternating current of 60 Hz frequency at increasing voltages. The three voltages (thresholds S1, S2, S3) at which there are successively obtained:
Threshold S1 : characteristic retraction movement of the tail
Threshold S3 : a cry which continues after interrupting the stimulation.
The analgesic substances administered to a group of 15 rats have the effect of increasing the values of these thresholds. This is what have been observed with the substance according to the invention, administered by mouth at the dose of 50 mg/kg. The average increases, expressed as % with respect to the average corresponding thresholds observed in 15 animals of a control series, are indicated in Table VIII below.

[3] = Acute oral toxicity / LD50 in the mouse; conditions: in vivo, po
Experimental: (§1) LD50 were determined in the mouse and the rat. The substance was administered to the animals by the oral route in a single dose. The behaviour of the animals was observed during the six days which followed. The statistical calculations were done by the method of Miller L. C. Tainter M. L. (Proc. Soc. Exp. Biol. Med., 1944 57 261/264/264).

mouse = assay: Acute oral toxicity / LD50 in the mouse; conditions: for Mortality: in vivo, po
Experimental: as §1

in vivo = conditions: rat, in vivo, po
Experimental: as §1

rat = assay: in vivo
Experimental: as §1

all the animals = assay: AD50 (active dose 50) and therapeutic index as shown by the above-mentioned tests; type: in vivo; conditions: for ED50: read-out: AD50 (active dose 50)
Solubility = type: physicochemical
[4] = comparison batch, 25 mg/kg by mouth
[5] = comparison batch, 50 mg/kg by mouth
[6] = relative to the values of the invention's substance

## CCCCC1C(=O)NN(c2ccnc3cc(Cl)ccc23)C1=O (stereo not drawn) [1-(7'-chloro 4'-quinolinyl) 3,5-dioxo 4-n-butyl pyrazolidine]
Experimental pleurisy; Batch No. 1, 12.5 mg/kg by mouth
  Reduction of average volume of pleural exudate: -24%
Experimental pleurisy; Batch No. 1, 25 mg/kg by mouth
  Reduction of average volume of pleural exudate: -35%
Experimental pleurisy; Batch No. 1, 50 mg/kg by mouth
  Reduction of average volume of pleural exudate: -45%
Experimental pleurisy; Batch No. 2, 12.5 mg/kg by mouth
  Reduction of average volume of pleural exudate: -23%
Experimental pleurisy; Batch No. 2, 25 mg/kg by mouth
  Reduction of average volume of pleural exudate: -38%
Experimental pleurisy; Batch No. 2, 50 mg/kg by mouth
  Reduction of average volume of pleural exudate: -55%
Experimental pleurisy; Batch No. 3, 12.5 mg/kg by mouth
  Reduction of average volume of pleural exudate: -18%
Experimental pleurisy; Batch No. 3, 25 mg/kg by mouth
  Reduction of average volume of pleural exudate: -28%
Experimental pleurisy; Batch No. 3, 50 mg/kg by mouth
  Reduction of average volume of pleural exudate: -45%
[1]; after 5 days of treatment
  Animals with at least partial deblocking of the articulations: at least 25%
[1]; after 10 days of treatment
  Animals with at least partial deblocking of the articulations: ≥ 50%
[1]; after 15 days of treatment
  Animals with at least partial deblocking of the articulations: ≥ 65%
[2]; 11/2 hour
  Average increase of threshold S1: 0
[2]; 30 minutes
  Average increase of threshold S1: 0
[2]; 1 hour
  Average increase of threshold S1: 0
[2]; 2 hours
  Average increase of threshold S1: 0
[3]
  LD50 at 144 h: ~2000 mg/kg
[3]; 1000 mg/kg
  mortality at 144 h: 16%
[3]; 2000 mg/kg
  mortality at 144 h: 50%
[3]; 4000 mg/kg
  mortality at 144 h: 100%
mouse; 200 mg/kg
  Mortality: no death
mouse; 500 mg/kg
  Mortality: no death
In vivo
  LD50 at 144 h: > 4000 mg/kg
In vivo; 4000 mg/kg
  mortality at 144 h: 5%
rat; in vivo, po, 200 mg/kg
  Mortality: no death
rat; in vivo, po, 500 mg/kg
  Mortality: no death
rat; oral single dose, 1 g/kg
  Mortality: no death
rat; oral single dose, 2 g/kg
  Mortality: no death
All the animals; in all the animals, determined under similar conditions
  ED50: ~50 mg/kg
All the animals; in vivo
  therapeutic index: notably higher than that of phenylbutazone
Solubility; alcohol
  solubility in alcohol: soluble
Solubility; solutions of potassium or of sodium carbonate
  solubility in solutions of potassium or of sodium carbonate: soluble
Solubility; water
  solubility in water: insoluble

## Cc1cccc(Nc2ccccc2C(=O)O)c1C [Ac. Mefenamic, Mefanamic acid, reference compound]
Experimental pleurisy; [4]
  Reduction of average volume of pleural exudate: -30%

## O=C(O)c1ccccc1Nc1cccc(C(F)(F)F)c1 [Ac. flufenamic, Flufenamic acid, reference compound]
Experimental pleurisy; [4]
  Reduction of average volume of pleural exudate: -32%

## O=C(O)c1cccnc1Nc1cccc(C(F)(F)F)c1 [Ac. niflumic, Niflumic acid, reference compound]
Experimental pleurisy; [5]
  Reduction of average volume of pleural exudate: -30%

## COc1ccc2c(c1)c(CC(=O)O)c(C)n2C(=O)c1ccc(Cl)cc1 [Indomethacine, reference compound]
Experimental pleurisy; comparison batch, 5 mg/kg by mouth
  Reduction of average volume of pleural exudate: -33%

## CCCCC1C(=O)N(c2ccccc2)N(c2ccccc2)C1=O [Phenylbutazone, reference compound]
Experimental pleurisy; comparison batch, 100 mg/kg by mouth
  Reduction of average volume of pleural exudate: -49%
mouse; [6]
  LD50 (in words): much lower than the above-indicated values
rat; [6]
  LD50 (in words): much lower than the above-indicated values
All the animals
  ED50: ~100 mg/kg

## Clofezone [reference compound]
Experimental pleurisy; [5]
  Reduction of average volume of pleural exudate: -37%
